Some test systems named below: 786-0; HOP-92; K562; LOX IMVI; MCF7; MDA-MB-231; OVCAR-3; OVCAR-4; OVCAR-5; OVCAR-8; RPMI-8226; SF-295; SK-MEL-28; SNB-75; SW-620; TK-10; Malme-3M; NCI-H460; BT-549.
What all share (experiment): NCI-60 cell line screen, 48 h

SMILES strings stand for the structures.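 How tested: cells in 96-well plates exposed to compound for 48 hours at five concentrations. Here, GI50 denotes the concentration required for 50% inhibition of growth.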 Calls of active or inactive are those of the source. No stated cut-off is given here; in the data, active = GI50 up to about 1.1 µM and inactive = higher. Where a SMILES comes first, the peptide text is derived from it. The star is where a group is joined. ONb = O=[N+]([O-])c1ccc(CO*)cc1; Boc = CC(C)(C)OC(=O)* Bounds are passed on as bounds.

Take `COc1cccc([C@@H]2CC(=O)c3cc4c(cc3N2)OCO4)c1`: the GI50 with 786-0 was > 100 µM (inactive); in the assay with HOP-92, > 100 µM (inactive); with K562 it was 98.4 µM (inactive); in the assay on LOX IMVI, > 100 µM (inactive); in the assay with MCF7, > 100 µM (inactive); with MDA-MB-231, > 100 µM (inactive). The GI50 in the assay on OVCAR-3 is > 100 µM (inactive); in the assay on OVCAR-4, > 100 µM (inactive); in the assay with OVCAR-5 it was > 100 µM (inactive); with OVCAR-8, > 100 µM (inactive); in the assay with RPMI-8226 it was 76.4 µM (inactive); with SF-295, > 100 µM (inactive). The GI50 in the assay on SK-MEL-28 was > 100 µM (inactive); with SNB-75, 86.3 µM (inactive); in the assay with SW-620, > 100 µM (inactive); in the assay on TK-10, > 100 µM (inactive).
With `O=[N+]([O-])c1ccc2nc(Nc3ccccc3)c(Nc3ccccc3)nc2c1`, the GI50 was 1.49 µM (inactive) in the assay on 786-0; 1.63 µM (inactive) in the assay with HOP-92; 2.04 µM (inactive) in the assay on K562; 1.58 µM (inactive) in the assay on LOX IMVI; 1.36 µM (inactive) with MDA-MB-231; 1.84 µM (inactive) in the assay with Malme-3M. Also, the GI50 in the assay with NCI-H460 is 0.42 µM (active); with OVCAR-4 it was 2.87 µM (inactive); in the assay with OVCAR-5, 2.64 µM (inactive); in the assay on OVCAR-8 it was 1.03 µM (active); in the assay on RPMI-8226, 2.61 µM (inactive); in the assay with SF-295 it was 1.14 µM (inactive). Besides, the GI50 in the assay with SK-MEL-28 is 2.45 µM (inactive); in the assay with SNB-75, 2 µM (inactive); in the assay with SW-620 it was 1.56 µM (inactive); in the assay on TK-10, 2.83 µM (inactive).
`Nc1ccc(C(=O)NN2C(=O)[C@H](Cl)C2c2ccc(Cl)cc2)cc1` (some centres undefined): the GI50 with 786-0 is 1.32 µM (inactive); with HOP-92, 1.87 µM (inactive); in the assay with K562 it was 1.82 µM (inactive); with MCF7, 1.17 µM (inactive); with MDA-MB-231 it was 1.81 µM (inactive); in the assay with Malme-3M, 2.21 µM (inactive). Further, the GI50 is 2.08 µM (inactive) in the assay with NCI-H460; 0.57 µM (active) with OVCAR-3; 0.615 µM (active) in the assay on OVCAR-4; 4.2 µM (inactive) with OVCAR-5; 1.76 µM (inactive) with OVCAR-8; 1.21 µM (inactive) in the assay with RPMI-8226. Further, the GI50 was 4.55 µM (inactive) in the assay on SF-295; 0.265 µM (active) in the assay on SK-MEL-28; 0.223 µM (active) with SNB-75; 2.11 µM (inactive) with SW-620; 0.838 µM (active) in the assay on TK-10.
`O=c1ccn2n1CCCCC2`: the GI50 in the assay with 786-0, in the assay on HOP-92, in the assay with K562, in the assay with LOX IMVI, in the assay on MDA-MB-231 and in the assay with Malme-3M was > 100 µM (inactive) each time. The GI50 in the assay on NCI-H460, in the assay on OVCAR-3, with OVCAR-4, in the assay on OVCAR-5, in the assay with OVCAR-8 and with RPMI-8226 was > 100 µM (inactive) throughout. For the same molecule, the GI50 in the assay on SF-295, in the assay with SK-MEL-28, with SW-620 and in the assay on TK-10 was > 100 µM (inactive) each time.
Turning to `CSc1ncnc2c1ncn2CCC(=O)O`, the GI50 with 786-0, in the assay on HOP-92, in the assay on K562, in the assay with LOX IMVI, in the assay with MCF7 and in the assay on MDA-MB-231 was > 100 µM (inactive) in each case. Moreover, the GI50 in the assay on Malme-3M, in the assay with NCI-H460, with OVCAR-3, in the assay on OVCAR-4, in the assay with OVCAR-5 and with OVCAR-8 was > 100 µM (inactive) in each case. Further, the GI50 in the assay with RPMI-8226, in the assay on SF-295, in the assay with SK-MEL-28, with SNB-75, with SW-620 and in the assay with TK-10 was > 100 µM (inactive) in each case.
In the case of `O=C(NCCO)c1ccc(Cl)cc1`, the GI50 in the assay with 786-0, in the assay on BT-549, in the assay with HOP-92, in the assay with K562, with LOX IMVI and in the assay with MDA-MB-231 was > 100 µM (inactive) in each case. Besides, the GI50 with Malme-3M, in the assay on NCI-H460, with OVCAR-3, in the assay with OVCAR-4, with OVCAR-5 and in the assay on OVCAR-8 was > 100 µM (inactive) throughout. Also, the GI50 in the assay with SF-295, in the assay with SK-MEL-28, in the assay with SNB-75, with SW-620 and with TK-10 was > 100 µM (inactive) in each case.
As for `CC1[C@@H](OCc2ccccc2)COC(=O)N1Cc1ccccc1` (some centres undefined), the GI50 in the assay with 786-0 is > 100 µM (inactive); in the assay with HOP-92 it was 5.27 µM (inactive); in the assay with K562 it was 60 µM (inactive); in the assay with LOX IMVI, > 100 µM (inactive); in the assay with MCF7, 81.8 µM (inactive); in the assay on MDA-MB-231, > 100 µM (inactive). The GI50 is > 100 µM (inactive) in the assay on Malme-3M; > 100 µM (inactive) in the assay on OVCAR-3; 78 µM (inactive) with OVCAR-4; > 100 µM (inactive) in the assay on OVCAR-5; > 100 µM (inactive) with OVCAR-8; 52.2 µM (inactive) in the assay with RPMI-8226. The GI50 was 46.2 µM (inactive) in the assay with SF-295; > 100 µM (inactive) in the assay on SK-MEL-28; > 100 µM (inactive) in the assay on SNB-75; > 100 µM (inactive) in the assay with SW-620; > 100 µM (inactive) with TK-10.
On to `COc1cc(/C=C2\[C@H]3c4c(c(OC)c(C)c(OC)c4OC)C[C@@H](C(=O)N2Cc2ccccc2)N3C(=O)OCC(C)C)c(OC)c(C)c1OC`, for which the GI50 with 786-0 was > 100 µM (inactive); with HOP-92, 2.99 µM (inactive); in the assay on K562 it was 42.2 µM (inactive); in the assay on LOX IMVI, > 100 µM (inactive); with Malme-3M, > 100 µM (inactive); in the assay with OVCAR-3 it was > 41.4 µM (inactive). Besides, the GI50 is > 100 µM (inactive) in the assay with OVCAR-4; > 27.5 µM (inactive) with OVCAR-5; > 100 µM (inactive) in the assay on OVCAR-8; 13.6 µM (inactive) in the assay on RPMI-8226; > 100 µM (inactive) with SF-295; > 100 µM (inactive) in the assay on SK-MEL-28. Also, the results for the GI50 in the assay with SNB-75, with SW-620 and in the assay on TK-10 were > 83.2 µM (inactive), > 31.6 µM (inactive) and > 100 µM (inactive), respectively.
As to `O=[N+]([O-])c1ccc(S(=O)(=O)n2c3ccc(Br)cc3c3nc4ccccc4nc32)cc1`, the GI50 with 786-0 is > 100 µM (inactive); in the assay with HOP-92, > 100 µM (inactive); with K562, 70.8 µM (inactive); in the assay with LOX IMVI it was > 100 µM (inactive); in the assay with MDA-MB-231, > 100 µM (inactive); in the assay on NCI-H460, > 100 µM (inactive). Besides, the GI50 in the assay on OVCAR-3, with OVCAR-4, in the assay with OVCAR-5, in the assay on OVCAR-8, with RPMI-8226 and in the assay on SF-295 was > 100 µM (inactive) each time. The GI50 is > 100 µM (inactive) in the assay on SK-MEL-28, 77.6 µM (inactive) in the assay on SNB-75, > 100 µM (inactive) in the assay on SW-620 and > 100 µM (inactive) with TK-10.
For `NCCS(=O)(=O)O` [TAURINE], the GI50 in the assay with 786-0, in the assay on HOP-92, in the assay with K562, in the assay on LOX IMVI, in the assay with MCF7 and in the assay on MDA-MB-231 was > 100 µM (inactive) in each case. For the same molecule, the GI50 in the assay with Malme-3M, in the assay on NCI-H460, with OVCAR-3, in the assay with OVCAR-5, with OVCAR-8 and with RPMI-8226 was > 100 µM (inactive) in each case. Besides, the GI50 with SF-295, with SK-MEL-28, with SNB-75, with SW-620 and with TK-10 was > 100 µM (inactive) each time.
With `CC(C)CC(NC(=O)OC(C)(C)C)C(=O)NC(CCC(=O)OCc1ccc([N+](=O)[O-])cc1)C(=O)OCc1ccc([N+](=O)[O-])cc1` (stereo not drawn) (Boc-Leu-Glu(ONb)-ONb; configuration not given here), the GI50 in the assay with 786-0 is 26.1 µM (inactive); in the assay with HOP-92, 56.4 µM (inactive); in the assay with K562, 9.44 µM (inactive); with LOX IMVI it was 25.2 µM (inactive); with MCF7, > 10 µM (inactive); with MDA-MB-231, > 100 µM (inactive). Also, the GI50 in the assay with Malme-3M was > 100 µM (inactive); with NCI-H460, 22 µM (inactive); in the assay on OVCAR-3, 26.6 µM (inactive); with OVCAR-4, > 100 µM (inactive); in the assay with OVCAR-5 it was > 100 µM (inactive); in the assay on OVCAR-8, 37.1 µM (inactive). Moreover, the GI50 in the assay with RPMI-8226 is 22.4 µM (inactive); in the assay with SF-295, 43.4 µM (inactive); with SK-MEL-28 it was 15.8 µM (inactive); with SNB-75 it was 16.6 µM (inactive); in the assay with SW-620 it was 50.9 µM (inactive); in the assay with TK-10, 28.6 µM (inactive).
As to `CCOC(=O)/C(C#N)=C/c1[nH]c(C(=O)OCc2ccccc2)c(C)c1C`, the GI50 with 786-0 was > 100 µM (inactive); in the assay on HOP-92, 78.9 µM (inactive); in the assay with K562 it was > 100 µM (inactive); in the assay on LOX IMVI, > 100 µM (inactive); in the assay on Malme-3M, > 100 µM (inactive); with NCI-H460, > 100 µM (inactive). For the same molecule, the GI50 with OVCAR-3, in the assay on OVCAR-4, in the assay with OVCAR-5, in the assay on OVCAR-8, with RPMI-8226 and with SF-295 was > 100 µM (inactive) in each case. The GI50 with SK-MEL-28, in the assay on SNB-75, in the assay with SW-620 and in the assay with TK-10 was > 100 µM (inactive) each time.

The values are drawn from ChEMBL document CHEMBL1201862, “PubChem BioAssay data set” (2004).
